# PubChem BioAssay (NCI)
#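 Abbreviation: GI50, concentration required for 50% inhibition of growth. TGI denotes the concentration required for complete inhibition of growth.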
# Assays:
# Assay in all cases: NCI tumour cell line growth inhibition, 384-well format
# SR leukemia = test system: SR leukemia
# HL-60(TB) leukemia = test system: HL-60(TB) leukemia
# DU-145 prostate = test system: DU-145 prostate
# OVCAR-5 ovarian = test system: OVCAR-5 ovarian
# MDA-MB-435 melanoma = test system: MDA-MB-435 melanoma
# MALME-3M melanoma = test system: MALME-3M melanoma
# SNB-19 CNS = test system: SNB-19 CNS
# MOLT-4 leukemia = test system: MOLT-4 leukemia
# SK-MEL-28 melanoma = test system: SK-MEL-28 melanoma
# OVCAR-3 ovarian = test system: OVCAR-3 ovarian
# A549 NSCLC = test system: A549 NSCLC
# NCI-H23 lung = test system: NCI-H23 lung
# HT29 colon = test system: HT29 colon
# CCRF-CEM leukemia = test system: CCRF-CEM leukemia
# UACC-257 melanoma = test system: UACC-257 melanoma
# SK-MEL-2 melanoma = test system: SK-MEL-2 melanoma
# SK-MEL-5 melanoma = test system: SK-MEL-5 melanoma
# COLO 205 colon = test system: COLO 205 colon
# SK-OV-3 ovarian = test system: SK-OV-3 ovarian
# TK-10 renal = test system: TK-10 renal
# HOP-62 NSCLC = test system: HOP-62 NSCLC
# T-47D breast = test system: T-47D breast
# HCT-116 colon = test system: HCT-116 colon
# CAKI-1 renal = test system: CAKI-1 renal
# NCI-H522 lung = test system: NCI-H522 lung
# MCF7 breast = test system: MCF7 breast
# PC-3 prostate = test system: PC-3 prostate
# NCI-H226 lung = test system: NCI-H226 lung
# SN12C renal = test system: SN12C renal
# SW-620 colon = test system: SW-620 colon
# UO-31 renal = test system: UO-31 renal
# KM12 colon = test system: KM12 colon
# K-562 leukemia = test system: K-562 leukemia
# A498 renal = test system: A498 renal
# SF-539 CNS = test system: SF-539 CNS
# NCI-H460 NSCLC = test system: NCI-H460 NSCLC
# RXF 393 renal = test system: RXF 393 renal
# OVCAR-4 ovarian = test system: OVCAR-4 ovarian
# BT-549 breast = test system: BT-549 breast
# HCT-15 colon = test system: HCT-15 colon
# HCC-2998 colon = test system: HCC-2998 colon
# LOX IMVI melanoma = test system: LOX IMVI melanoma
# MDA-MB-468 breast = test system: MDA-MB-468 breast
# ACHN renal = test system: ACHN renal
# HOP-92 NSCLC = test system: HOP-92 NSCLC
# OVCAR-8 ovarian = test system: OVCAR-8 ovarian
# SF-295 CNS = test system: SF-295 CNS
# NCI/ADR-RES ovarian = test system: NCI/ADR-RES ovarian
# IGROV1 ovarian = test system: IGROV1 ovarian
# U251 glioblastoma = test system: U251 glioblastoma
# UACC-62 melanoma = test system: UACC-62 melanoma
# RPMI-8226 leukemia = test system: RPMI-8226 leukemia
# MDA-MB-231 breast = test system: MDA-MB-231 breast
# M14 melanoma = test system: M14 melanoma
# SF-268 CNS = test system: SF-268 CNS
# 786-0 renal = test system: 786-0 renal
# NCI-H322M lung = test system: NCI-H322M lung
smiles,measurement,setting,value
C=CC(=O)N1C[C@@H]2CCOc3c(Cl)c(-c4c(O)cccc4F)c(F)c4ncnc(c34)N2C[C@H]1C,GI50,SR leukemia,1.07 µM
same,TGI,SR leukemia,2.28 µM
same,GI50,HL-60(TB) leukemia,1.29 µM
same,TGI,HL-60(TB) leukemia,2.62 µM
same,GI50,DU-145 prostate,1.95 µM
same,TGI,DU-145 prostate,5.12 µM
same,GI50,OVCAR-5 ovarian,4.71 µM
same,TGI,OVCAR-5 ovarian,17 µM
same,GI50,MDA-MB-435 melanoma,1.91 µM
same,TGI,MDA-MB-435 melanoma,3.96 µM
same,GI50,MALME-3M melanoma,1.93 µM
same,TGI,MALME-3M melanoma,7.88 µM
same,GI50,SNB-19 CNS,3.76 µM
same,TGI,SNB-19 CNS,16 µM
same,GI50,MOLT-4 leukemia,1.16 µM
same,TGI,MOLT-4 leukemia,2.4 µM
same,GI50,SK-MEL-28 melanoma,2.36 µM
same,TGI,SK-MEL-28 melanoma,8.43 µM
same,GI50,OVCAR-3 ovarian,1.55 µM
same,TGI,OVCAR-3 ovarian,3.04 µM
same,GI50,A549 NSCLC,2.24 µM
same,TGI,A549 NSCLC,6.75 µM
same,TGI,NCI-H23 lung,0.0227 µM
same,GI50,HT29 colon,2.54 µM
same,TGI,HT29 colon,6.84 µM
same,GI50,CCRF-CEM leukemia,1.6 µM
same,TGI,CCRF-CEM leukemia,3.05 µM
same,GI50,UACC-257 melanoma,1.29 µM
same,TGI,UACC-257 melanoma,6.42 µM
same,GI50,SK-MEL-2 melanoma,1.22 µM
same,TGI,SK-MEL-2 melanoma,2.63 µM
same,GI50,SK-MEL-5 melanoma,1.62 µM
same,TGI,SK-MEL-5 melanoma,3.41 µM
same,GI50,COLO 205 colon,2.01 µM
same,TGI,COLO 205 colon,4.52 µM
same,GI50,SK-OV-3 ovarian,2.19 µM
same,TGI,SK-OV-3 ovarian,8.03 µM
same,GI50,TK-10 renal,2.4 µM
same,TGI,TK-10 renal,10.7 µM
same,GI50,HOP-62 NSCLC,0.0309 µM
same,TGI,HOP-62 NSCLC,4.75 µM
same,GI50,T-47D breast,1.89 µM
same,TGI,T-47D breast,5.47 µM
same,GI50,HCT-116 colon,2.2 µM
same,TGI,HCT-116 colon,5.95 µM
same,GI50,CAKI-1 renal,1.56 µM
same,TGI,CAKI-1 renal,6.43 µM
same,GI50,NCI-H522 lung,1.63 µM
same,TGI,NCI-H522 lung,3.54 µM
same,GI50,MCF7 breast,3.1 µM
same,TGI,MCF7 breast,11.6 µM
same,GI50,PC-3 prostate,3.04 µM
same,TGI,PC-3 prostate,10.6 µM
same,GI50,NCI-H226 lung,2.15 µM
same,TGI,NCI-H226 lung,5.78 µM
same,GI50,SN12C renal,1.96 µM
same,TGI,SN12C renal,4.23 µM
same,GI50,SW-620 colon,2.27 µM
same,TGI,SW-620 colon,4.07 µM
same,GI50,UO-31 renal,1.92 µM
same,TGI,UO-31 renal,9.16 µM
same,GI50,KM12 colon,1.88 µM
same,TGI,KM12 colon,4.27 µM
same,GI50,K-562 leukemia,1.74 µM
same,TGI,K-562 leukemia,3.68 µM
same,GI50,A498 renal,2.27 µM
same,TGI,A498 renal,8.26 µM
same,GI50,SF-539 CNS,1.8 µM
same,TGI,SF-539 CNS,3.45 µM
same,GI50,NCI-H460 NSCLC,2.34 µM
same,TGI,NCI-H460 NSCLC,5.34 µM
same,GI50,RXF 393 renal,0.0601 µM
same,TGI,RXF 393 renal,0.407 µM
same,GI50,OVCAR-4 ovarian,1.96 µM
same,TGI,OVCAR-4 ovarian,4.75 µM
same,GI50,BT-549 breast,1.26 µM
same,TGI,BT-549 breast,2.97 µM
same,GI50,HCT-15 colon,2.63 µM
same,TGI,HCT-15 colon,10.6 µM
same,GI50,HCC-2998 colon,1.57 µM
same,TGI,HCC-2998 colon,3.15 µM
same,GI50,LOX IMVI melanoma,4.18 µM
same,TGI,LOX IMVI melanoma,11.4 µM
same,GI50,MDA-MB-468 breast,1.68 µM
same,TGI,MDA-MB-468 breast,3.62 µM
same,GI50,ACHN renal,2.58 µM
same,TGI,ACHN renal,7.93 µM
same,GI50,HOP-92 NSCLC,2.95 µM
same,TGI,HOP-92 NSCLC,9.36 µM
same,GI50,OVCAR-8 ovarian,1.64 µM
same,TGI,OVCAR-8 ovarian,3.06 µM
same,GI50,SF-295 CNS,7.48 µM
same,TGI,SF-295 CNS,20.3 µM
same,GI50,NCI/ADR-RES ovarian,1.76 µM
same,TGI,NCI/ADR-RES ovarian,3.53 µM
same,GI50,IGROV1 ovarian,1.7 µM
same,TGI,IGROV1 ovarian,4.64 µM
same,GI50,U251 glioblastoma,2.43 µM
same,TGI,U251 glioblastoma,7.66 µM
same,GI50,UACC-62 melanoma,1.41 µM
same,TGI,UACC-62 melanoma,5.5 µM
same,GI50,RPMI-8226 leukemia,0.232 µM
same,TGI,RPMI-8226 leukemia,1.28 µM
same,GI50,MDA-MB-231 breast,2.61 µM
same,TGI,MDA-MB-231 breast,8.92 µM
same,GI50,M14 melanoma,2.62 µM
same,TGI,M14 melanoma,10.1 µM
same,GI50,SF-268 CNS,2.1 µM
same,TGI,SF-268 CNS,4.86 µM
same,GI50,786-0 renal,1.73 µM
same,TGI,786-0 renal,3.91 µM
same,GI50,NCI-H322M lung,6.66 µM
same,TGI,NCI-H322M lung,19.4 µM
